{"source": "patent US20040131686A1", "about": "“Composition and method for treatment of bacterial vaginal infections” (priority 2003, published 2004)", "key": {"[1]": {"system": "Staphylococcus aureus (ATCC #6538)", "test": "Zone of inhibition on agar plate inoculated with Staphylococcus aureus", "type": "cell-based", "description": "About 1 grams of each gelled composition was deposited on an agar plate that was previously inoculated with E. coli (ATCC #11229), a Gram-negative bacterium, and the plates were incubated for about 20 to about 28 hours at a temperature of about 35 to about 39° C. Antibacterial activity was evaluated by measuring the diameter of the zone of inhibition (i.e., a clear zone with no bacterial colonies present, measured in millimeters) around the deposited gel.\nSimilar plates were prepared wherein the inoculant was Staphylococcus aureus (ATCC #6538), a Gram-positive bacterium.\n(§1) A commercially available vaginal cream formulation of benzydamine hydrochloride, TANTUM ROSA® cream, available from Angelini Pharmaceuticals, Rome, Italy was also evaluated, for comparison. According to the manufacturer's product literature TANTUM ROSA® cream contains about 0.5% benzydamine hydrochloride in a cream base containing propylene glycol, saturated triglycerides, ceteth 20, hydroxyethyl cellulose, sodium citrate dihydrate, citric acid monohydrate, benzoic acid, and purified water. In addition, a simple aqueous solution containing 0.5% by weight of benzydamine hydrochloride in deionized water was tested as a positive control. All materials were tested in triplicate."}, "E. coli (ATCC #11229)": {"system": "E. coli (ATCC #11229)", "test": "Zone of inhibition on agar plate inoculated with E. coli", "type": "cell-based", "description": "as §1, with “Antibacterial activity was evaluated by measuring the diameter of the zone of inhibition (i.e., a clear zone with no bacterial colonies present, measured in millimeters) around the deposited gel. A commercially” for “A commercially”, “available from […] Pharmaceuticals, Rome,” for “available from Angelini Pharmaceuticals, Rome,”"}, "[2]": {"conditions": "about 1 gram of composition on inoculated agar plate, about 20 to 28 hours, about 35 to 39° C., triplicate"}}, "note": "Structures can show the parent of a compound that is named as a salt."}
{"smiles": "CN(C)CCCOc1nn(Cc2ccccc2)c2ccccc12", "note": "[B-HCl, Benzydamine hydrochloride]", "values": [{"measurement": "Staphylococcus clear zone (diameter of zone of inhibition)", "setting": "[1]; [2]", "result": 14, "unit": "mm"}, {"measurement": "Antibacterial activity against Gram-positive bacteria (Staphylococcus aureus), in words", "setting": "[1]; inhibition test on agar plate", "result": "effective"}, {"measurement": "E. coli clear zone (diameter of zone of inhibition)", "setting": "E. coli (ATCC #11229); [2]", "result": 12, "unit": "mm"}, {"measurement": "Antibacterial activity against Gram-negative bacteria (E. coli), in words", "setting": "E. coli (ATCC #11229); inhibition test on agar plate", "result": "effective"}]}
